Experimental findings from patent US11208400B2, “Substituted 6-(1H-pyrazol-1-yl)pyrimidin-4-amine derivatives and uses thereof” (Bayer Aktiengesellschaft, priority 2016, dated 2021) are described below.

This assay has as its target T1, human Npt2a (Homo sapiens, UniProt Q06495).
T1 construct: expressed in transfected cells
T1 sequence (Q06495 1-639): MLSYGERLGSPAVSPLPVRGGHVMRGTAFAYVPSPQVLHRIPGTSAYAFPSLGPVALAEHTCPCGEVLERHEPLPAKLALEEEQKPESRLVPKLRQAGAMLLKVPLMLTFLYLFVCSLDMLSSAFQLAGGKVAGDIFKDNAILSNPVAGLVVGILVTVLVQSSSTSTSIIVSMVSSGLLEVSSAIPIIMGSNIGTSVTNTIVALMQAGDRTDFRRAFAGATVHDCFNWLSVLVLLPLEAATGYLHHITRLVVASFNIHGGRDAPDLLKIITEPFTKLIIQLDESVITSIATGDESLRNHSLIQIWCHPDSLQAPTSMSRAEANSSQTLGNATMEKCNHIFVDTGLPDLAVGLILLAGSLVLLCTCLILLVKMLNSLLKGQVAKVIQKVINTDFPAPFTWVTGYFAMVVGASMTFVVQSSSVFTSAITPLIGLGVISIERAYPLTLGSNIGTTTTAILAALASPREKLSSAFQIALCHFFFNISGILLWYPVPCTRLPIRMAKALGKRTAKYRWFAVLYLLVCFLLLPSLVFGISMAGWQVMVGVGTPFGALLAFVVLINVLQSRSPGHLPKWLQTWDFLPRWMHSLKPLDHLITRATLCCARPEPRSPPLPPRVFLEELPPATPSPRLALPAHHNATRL
Nature of the assay: Npt2a activity cell based assay, membrane potential dye, CHO T-REx hNpt2a cells. Conditions: doxycycline-induced, depolarization by sodium phosphate influx, average or median values if tested more than once. On the procedure: For measuring Npt2a activity in a cell based assay, a stable CHO cell line with inducible Npt2a expression was generated. Therefore, CHO T-Rex cells (life technologies cat. R718-07) were stably transfected with doxycycline-inducible human NPT2a (pcDNA5TO-hNpt2a). The obtained CHO T-REx hNpt2a cells were routinely cultured in Dulbecco's MEM/F12 (4.5 g/l Glucose, Gibco cat. 21331-020; 500 mL) supplemented with 10 ml Glutamax 100×, Sodium pyruvate (7 mL of 100 mM solution), HEPES (10 mL of 1 M solution), Sodium bicarbonate (10 mL of 7.5% solution), 10% Fetal Bovine Serum Tetracycline free (Clontech cat. 631106, 500 ml), Penicillin-Streptomycin (5 mL of 100× Solution), Blasticidin 10 μg/mL and 400 μg/mL Hygromycin.
Activity of Npt2a was detected by following depolarization of cellular membrane potential by influx of sodium phosphate using fluorescent membrane potential dye kit BLUE (Molecular devices cat. R8034). For Npt2a activity measurements, CHO T-Rex hNpt2a cells were seeded into 1536 well microtiter plates (GREINER Bio-One cat. 782092) with 750 cells/well in 7 μL/w of complete medium (2% Tetracycline-free FBS, 2% Poly-D-Lysine) without selective agents+Doxycycline 0.5 μg/mL to induce Npt2a gene expression, and grown for 24 h at 37° C., 5% carbon dioxide.
On the day of experiment a 1×MPdye Loading Solution was freshly prepared by re-suspending 15 mg of Blue MPdye powder in 10 mL of NHE buffer sodium-free (140 mM N-Methyl-D-glucamine, 5.4 mM KCl, 1 mM CaCl2, 11 mM D(±)-Glucose water free, 1.2 mM MgCl2, 10 mM HEPES; pH 7.4 (adjusted with hydrochloric acid); sterile filtered). 5 μl medium was removed from plates by robotic manipulation, then 5 μL/well of sodium-free NHE buffer was added. After incubation for 2 min, this washing step was repeated once. Then, 5 μL/w of buffer was removed from plates and cells were incubated for 5 min at room temperature with 5 μL/w of MPdye Loading Solution (1× in Sodium-free NHE Buffer). Test compounds were added to the cells at final test concentrations between 50 μM and 1 nM (0.6 μL/well, final DMSO 0.6%, prepared in MPDye Loading Solution) and incubated for 5 min at room temperature.
Plates were analyzed with an in house CCD camera device using a λexc 510-545 nm/λem 565-625 nm filter. Fluorescence was detected for 15 sec (background measurement M1). Activity of Npt2a was triggered by addition of 2 μL/well of 30 mM Na+ and 1 mM phosphate (prepared in a mixture of NHE Buffer Na+ free and NHE Buffer 140 mM Na+). Fluorescence was followed for 2-3 min (depolarization measurement M2). Data was normalized to cell number and dye loading efficiency by calculating M2/M1. This quotient was plotted against test compound concentration. Graph Pad Prism or equivalent in house software was used to create sigmoidal dose-response curves (variable slope) and determine IC50 values.
As to `CCc1c(Nc2cc(-n3ncc4c3CN(C(=O)OC(C)(C)C)C4)ncn2)n[nH]c1-c1ccc(F)cc1` [Example 37, tert-butyl 1-(6-{[4-ethyl-5-(4-fluorophenyl)-1H-pyrazol-3-yl]amino}pyrimidin-4-yl)-4,6-dihydropyrrolo[3,4-c]pyrazole-5(1H)-carboxylate], the midpoint of inhibition, the IC50, lay at 1700 nM. This lies in the single-digit micromolar range.
Take `COCCn1nc(-c2ccc(F)cc2)c(C)c1Nc1cc(-n2nc(C)c(C(F)(F)F)c2C)ncn1` [Example 524, 6-[3,5-dimethyl-4-(trifluoromethyl)-1H-pyrazol-1-yl]-N-[3-(4-fluorophenyl)-1-(2-methoxyethyl)-4-methyl-1H-pyrazol-5-yl]pyrimidin-4-amine]: it took 8 nM to reach half-maximal inhibition (IC50).
On to `CCc1c(Nc2cc(-n3nc(C)c(CN4CC(F)C4)c3C)ncn2)nn(C)c1-c1ccc(F)cc1` [Example 296, N-[4-ethyl-5-(4-fluorophenyl)-1-methyl-1H-pyrazol-3-yl]-6-{4-[(3-fluoroazetidin-1-yl)methyl]-3,5-dimethyl-1H-pyrazol-1-yl}pyrimidin-4-amine], for which 117 nM corresponded to half-maximal inhibition (IC50).
On to `Cc1cc(C)n(-c2cc(Nc3c(C#N)c(-c4ccc(F)cc4)nn3C)ncn2)n1` [Example 24, 5-{[6-(3,5-dimethyl-1H-pyrazol-1-yl)pyrimidin-4-yl]amino}-3-(4-fluorophenyl)-1-methyl-1H-pyrazole-4-carbonitrile], for which the IC50 (usually the point on the concentration scale where inhibition reaches its midpoint) was 310 nM. This IC50 lies about 2.6-fold higher than the previous one.
On to `Cc1nn(-c2cc(Nc3c(C)c(-c4ccc(F)cc4)nn3CC3CC3)ncn2)c(C)c1C(=O)N(C)C` [Example 402, 1-(6-{[1-(cyclopropylmethyl)-3-(4-fluorophenyl)-4-methyl-1H-pyrazol-5-yl]amino}pyrimidin-4-yl)-N,N,3,5-tetramethyl-1H-pyrazole-4-carboxamide], for which half-maximal inhibition (IC50) was put at 55 nM.
Molecule `Cc1nn(-c2cc(Nc3c(C)c(-c4ccc(F)cc4)nn3CC3CC3)ncn2)c(C)c1C(O)C(F)(F)F` (single isomer, unassigned) [Example 375, 1-[1-(6-{[1-(cyclopropylmethyl)-3-(4-fluorophenyl)-4-methyl-1H-pyrazol-5-yl]amino}pyrimidin-4-yl)-3,5-dimethyl-1H-pyrazol-4-yl]-2,2,2-trifluoroethanol] gave an IC50 of 40 nM.
With `Cc1cc(C)n(-c2cc(Nc3c(C)c(-c4ccc(C(F)(F)F)nc4)nn3C)ncn2)n1` [Example 549, 6-(3,5-dimethyl-H-pyrazol-1-yl)-N-{1,4-dimethyl-3-[6-(trifluoromethyl)pyridin-3-yl]-1H-pyrazol-5-yl}pyrimidin-4-amine], the IC50 worked out at 2600 nM.
`COc1c(-c2ccc(F)cc2)nn(C)c1Nc1cc(-n2nc(C)cc2C)ncn1` [Example 254, 6-(3,5-dimethyl-1H-pyrazol-1-yl)-N-[3-(4-fluorophenyl)-4-methoxy-1-methyl-1H-pyrazol-5-yl]pyrimidin-4-amine] registered an IC50 of 150 nM.
`CCc1c(Nc2cc(-n3nc(C)cc3CO)ncn2)nn(C)c1-c1ccc(F)cc1` [Example 104, [1-(6-{[4-ethyl-5-(4-fluorophenyl)-1-methyl-1H-pyrazol-3-yl]amino}pyrimidin-4-yl)-3-methyl-1H-pyrazol-5-yl]methanol] showed an IC50 of 150 nM.
Turning to `COc1ccc(-c2nn(C)c(Nc3cc(-n4nc(C)c(C(F)(F)F)c4C)ncn3)c2C)cn1` [Example 494, 6-[3,5-dimethyl-4-(trifluoromethyl)-1H-pyrazol-1-yl]-N-[3-(6-methoxypyridin-3-yl)-1,4-dimethyl-1H-pyrazol-5-yl]pyrimidin-4-amine], half-maximal inhibition (IC50) required 190 nM.
`COC(C)c1c(C)nn(-c2cc(Nc3c(C)c(-c4ccc(C#N)cc4)nn3C)ncn2)c1C` (single isomer, unassigned) [Example 339, 4-{5-[(6-{4-[1-methoxyethyl]-3,5-dimethyl-1H-pyrazol-1-yl}pyrimidin-4-yl)amino]-1,4-dimethyl-1H-pyrazol-3-yl}benzonitrile] came in with an IC50 of 8 nM.
Then `Cc1cc(C(F)F)n(-c2cc(Nc3nn(C)c(-c4ccc(C(F)F)cc4)c3C)ncn2)n1` [Example 432, 6-[5-(difluoromethyl)-3-methyl-1H-pyrazol-1-yl]-N-{5-[4-(difluoromethyl)phenyl]-1,4-dimethyl-1H-pyrazol-3-yl}pyrimidin-4-amine], with 320 nM; and `Cc1cc(C(C)(C)O)n(-c2cc(Nc3nn(C)c(-c4ccc(F)cc4)c3C)ncn2)n1` [Example 262, 2-[1-(6-{[5-(4-fluorophenyl)-1,4-dimethyl-1H-pyrazol-3-yl]amino}pyrimidin-4-yl)-3-methyl-1H-pyrazol-5-yl]propan-2-ol], with 33 nM.
`Cc1cc(C(F)F)n(-c2cc(Nc3c(C)c(-c4ccc(C(F)(F)F)nc4)nn3C)ncn2)n1` [Example 548, 6-[5-(difluoromethyl)-3-methyl-1H-pyrazol-1-yl]-N-{1,4-dimethyl-3-[6-(trifluoromethyl)pyridin-3-yl]-1H-pyrazol-5-yl}pyrimidin-4-amine] gave a concentration for half-maximal inhibition (IC50) of 790 nM.
`Cc1cc(C)n(-c2cc(Nc3n[nH]c(-c4ccc(F)cc4)c3C)ncn2)n1` [Example 17, 6-(3,5-dimethyl-1H-pyrazol-1-yl)-N-[5-(4-fluorophenyl)-4-methyl-1H-pyrazol-3-yl]pyrimidin-4-amine] displayed an IC50 of 100 nM. Compared with the last molecule, the IC50 is about 7.9-fold lower.
Regarding `COc1ccc(-c2nn(C)c(Nc3cc(-n4nc(C)cc4C(F)F)ncn3)c2C)cn1` [Example 499, 6-[5-(difluoromethyl)-3-methyl-1H-pyrazol-1-yl]-N-[3-(6-methoxypyridin-3-yl)-1,4-dimethyl-1H-pyrazol-5-yl]pyrimidin-4-amine], half-maximal inhibition (IC50) was put at 3150 nM.
The molecule `CCc1c(Nc2cc(-n3nc(C)cc3C(F)F)ncn2)nn(C)c1-c1ccc(C#N)cc1` [Example 217, 4-[3-({6-[5-(difluoromethyl)-3-methyl-1H-pyrazol-1-yl]pyrimidin-4-yl}amino)-4-ethyl-1-methyl-1H-pyrazol-5-yl]benzonitrile] returned an IC50 of 2 nM.
`COC(=O)c1ccc(-c2c(C)c(Nc3cc(-n4nc(C)cc4C)ncn3)nn2C)cc1` [Example 122, methyl 4-(3-{[6-(3,5-dimethyl-1H-pyrazol-1-yl)pyrimidin-4-yl]amino}-1,4-dimethyl-1H-pyrazol-5-yl)benzoate] came in with an IC50 of 25 nM. This IC50 is about 12-fold higher than that of the molecule before.
Turning to `CCOC(=O)c1c(C)nn(-c2cc(Nc3c(C)c(-c4ccc(C(F)F)cc4)nn3CCOC)ncn2)c1C` [Example 546, ethyl 1-[6-({3-[4-(difluoromethyl)phenyl]-1-(2-methoxyethyl)-4-methyl-1H-pyrazol-5-yl}amino)pyrimidin-4-yl]-3,5-dimethyl-1H-pyrazole-4-carboxylate], the IC50 turned out to be 14 nM.
In turn, `Cc1nn(-c2cc(Nc3c(C)c(-c4ccc(C#N)cc4)nn3CC3CC3)ncn2)c(C(F)F)c1C(=O)OC(C)(C)C` [Example 192, tert-butyl 1-(6-{[3-(4-cyanophenyl)-1-(cyclopropylmethyl)-4-methyl-1H-pyrazol-5-yl]amino}pyrimidin-4-yl)-5-(difluoromethyl)-3-methyl-1H-pyrazole-4-carboxylate] registered an IC50 of 16 nM.
